{
  "source": "patent US6737511B1",
  "about": "(priority 1999, dated 2004)",
  "key": {"Cos-7 cells": {"test_system": "Cos-7 cells", "type": "cell-based, monkey"}, "J774 cells": {"test_system": "J774 cells", "type": "cell-based"}, "HeLa cells": {"test_system": "HeLa cells", "type": "cell-based, human", "conditions": "chloroquine 10 μM"}},
  "data": [
    {"compound": "CN[C@@H]1C[C@H]2O[C@@](C)([C@@H]1OC)n1c3ccccc3c3c4c(c5c6ccccc6n2c5c31)C(=O)NC4", "note": "[STS, staurosporine]", "values": [
      {"measurement": "Cell death (%)", "setting": "Cos-7 cells", "result": 24, "unit": "%"},
      {"measurement": "apoptosis induced in J774 cells", "setting": "J774 cells", "result": "died by apoptosis over the following 36 hours"}
    ]},
    {"compound": "CCN(CC)CCCC(C)Nc1ccnc2cc(Cl)ccc12", "note": "(stereo not shown) [Chloroquine]", "values": [
      {"measurement": "effect on Bcl-xL-DTR inhibition of poliovirus-induced cell death", "setting": "HeLa cells", "result": "did not block the activity of Bcl-xL-DTR to inhibit poliovirus-induced cell death"}
    ]},
    {"compound": "brefeldin A", "values": [
      {"measurement": "effect on anti-apoptosis activity of Bcl-xL-DTR", "setting": "Cos-7 cells", "result": "does block the anti-apoptosis activity of Bcl-xL-DTR"}
    ]}
  ]
}
